Measurements: the supplement of paper PMC10307832

Assays:
Test in all cases: relative viability (nuclei count vs DMSO), 5 days (fraction); higher = more cells survive
Bosutinib + Dasatinib = compound: COc1cc(Nc2c(C#N)cnc3cc(OCCCN4CCN(C)CC4)c(OC)cc23)c(Cl)cc1Cl [Bosutinib] + Cc1nc(Nc2ncc(C(=O)Nc3c(C)cccc3Cl)s2)cc(N2CCN(CCO)CC2)n1 [Dasatinib] (partner 0.075 µM)
Summary of the method: (§1)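 Each reported value is a median over duplicate plates. It expresses relative viability: treated-well nuclei count divided by vehicle-well nuclei count. Lung cancer cell lines in 1536-well plates were dosed by pin tool a day after seeding, alone with one drug or with a fixed anchor-drug dose plus five library-drug doses (not always all listed) in √10 steps, and nuclei were counted after 5 days.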

Bosutinib + AZD7762 = compound: COc1cc(Nc2c(C#N)cnc3cc(OCCCN4CCN(C)CC4)c(OC)cc23)c(Cl)cc1Cl [Bosutinib] + NC(=O)Nc1cc(-c2cccc(F)c2)sc1C(=O)N[C@H]1CCCNC1 [AZD7762] (partner 0.2 µM)
Summary of the method: as §1

Bosutinib + Tozasertib = compound: COc1cc(Nc2c(C#N)cnc3cc(OCCCN4CCN(C)CC4)c(OC)cc23)c(Cl)cc1Cl [Bosutinib] + Cc1cc(Nc2cc(N3CCN(C)CC3)nc(Sc3ccc(NC(=O)C4CC4)cc3)n2)n[nH]1 [Tozasertib] (partner 0.1 µM)
Summary of the method: as §1

Bosutinib + Palbociclib = compound: COc1cc(Nc2c(C#N)cnc3cc(OCCCN4CCN(C)CC4)c(OC)cc23)c(Cl)cc1Cl [Bosutinib] + CC(=O)c1c(C)c2cnc(Nc3ccc(N4CCNCC4)cn3)nc2n(C2CCCC2)c1=O [Palbociclib] (partner 0.5 µM)
Summary of the method: as §1

Bosutinib + Trametinib = compound: COc1cc(Nc2c(C#N)cnc3cc(OCCCN4CCN(C)CC4)c(OC)cc23)c(Cl)cc1Cl [Bosutinib] + CC(=O)Nc1cccc(-n2c(=O)n(C3CC3)c(=O)c3c(Nc4ccc(I)cc4F)n(C)c(=O)c(C)c32)c1 [Trametinib] (partner 0.02 µM)
Summary of the method: as §1

Cell Line | relative viability (Bosutinib + Dasatinib; first compound 0.01 µM) | relative viability (Bosutinib + Dasatinib; first compound 0.03162 µM) | relative viability (Bosutinib + Dasatinib; first compound 0.1 µM) | relative viability (Bosutinib + Dasatinib; first compound 1 µM) | relative viability (Bosutinib + AZD7762; first compound 0.01 µM) | relative viability (Bosutinib + AZD7762; first compound 0.03162 µM) | relative viability (Bosutinib + AZD7762; first compound 0.1 µM) | relative viability (Bosutinib + AZD7762; first compound 1 µM) | relative viability (Bosutinib + Tozasertib; first compound 0.01 µM) | relative viability (Bosutinib + Tozasertib; first compound 0.03162 µM) | relative viability (Bosutinib + Tozasertib; first compound 0.1 µM) | relative viability (Bosutinib + Tozasertib; first compound 1 µM) | relative viability (Bosutinib + Palbociclib; first compound 0.01 µM) | relative viability (Bosutinib + Palbociclib; first compound 0.03162 µM) | relative viability (Bosutinib + Palbociclib; first compound 0.1 µM) | relative viability (Bosutinib + Palbociclib; first compound 1 µM) | relative viability (Bosutinib + Trametinib; first compound 0.01 µM) | relative viability (Bosutinib + Trametinib; first compound 0.03162 µM) | relative viability (Bosutinib + Trametinib; first compound 0.1 µM) | relative viability (Bosutinib + Trametinib; first compound 1 µM)
NCI-H647 | 0.22 | 0.219 | 0.222 | 0.174 | 0.608 | 0.516 | 0.421 | 0.252 | 0.38 | 0.203 | 0.389 | 0.201 | 0.528 | 0.394 | 0.452 | 0.299 | 0.488 | 0.483 | 0.375 | 0.221
NCI-H2009 | 0.41 | 0.362 | 0.416 | 0.344 | – | – | – | – | 0.732 | 0.82 | 0.73 | 0.572 | 0.246 | 0.302 | 0.195 | 0.147 | 0.276 | 0.344 | 0.27 | 0.166
EPLC-272H | 0.476 | 0.425 | 0.447 | 0.409 | 0.225 | 0.244 | 0.18 | 0.232 | 0.307 | 0.339 | 0.347 | 0.351 | 0.282 | 0.305 | 0.313 | 0.317 | 0.297 | 0.281 | 0.281 | 0.281
NCI-H520 | 0.226 | 0.232 | 0.199 | 0.22 | – | – | – | – | 0.407 | 0.446 | 0.39 | 0.347 | 0.206 | 0.227 | 0.208 | 0.169 | 0.703 | 0.633 | 0.6 | 0.417
NCI-H2405 | 0.259 | 0.204 | 0.215 | 0.238 | 0.873 | 0.739 | 0.701 | 0.598 | 0.738 | 0.796 | 0.743 | 0.661 | 0.518 | 0.514 | 0.561 | 0.383 | 0.659 | 0.653 | 0.605 | 0.396
NCI-H2085 | 0.264 | 0.219 | 0.329 | 0.398 | 1.1 | 0.903 | 0.939 | 0.65 | 0.782 | 0.692 | 0.765 | 0.738 | 0.465 | 0.442 | 0.469 | 0.517 | 0.564 | 0.467 | 0.54 | 0.5
NCI-H322M | 0.252 | 0.267 | 0.246 | 0.301 | 0.609 | 0.534 | 0.546 | 0.52 | 0.472 | 0.46 | 0.497 | 0.315 | 0.523 | 0.452 | 0.492 | 0.414 | 0.486 | 0.481 | 0.492 | 0.361
NCI-H1944 | 0.216 | 0.2 | 0.209 | 0.208 | 0.558 | 0.533 | 0.476 | 0.394 | 0.275 | 0.262 | 0.258 | 0.19 | 0.363 | 0.362 | 0.373 | 0.298 | 0.415 | 0.45 | 0.394 | 0.327
LC-2-ad | 0.678 | 0.701 | 0.659 | 0.906 | 0.88 | 0.818 | 0.846 | 0.755 | 0.469 | 0.401 | 0.506 | 0.482 | 0.498 | 0.507 | 0.522 | 0.478 | 0.953 | 0.898 | 0.892 | 0.859
NCI-H358 | 0.2 | 0.201 | 0.206 | 0.366 | 0.638 | 0.547 | 0.556 | 0.359 | 0.101 | 0.106 | 0.109 | 0.113 | 0.154 | 0.141 | 0.139 | 0.128 | 0.132 | 0.128 | 0.121 | 0.109
NCI-H2170 | 0.559 | 0.583 | 0.556 | 0.608 | 0.922 | 0.924 | 0.819 | 0.801 | 0.749 | 0.758 | 0.683 | 0.632 | 0.351 | 0.373 | 0.383 | 0.4 | 0.93 | 0.896 | 0.948 | 0.946
A-427 | 0.767 | 0.843 | 0.665 | 0.732 | 0.777 | 0.691 | 0.661 | 0.643 | 0.231 | 0.227 | 0.217 | 0.194 | 0.585 | 0.496 | 0.504 | 0.523 | 0.832 | 0.822 | 0.783 | 0.681
NCI-H1666 | 0.75 | 0.834 | 0.814 | 0.808 | 0.719 | 0.836 | 0.832 | 0.788 | 0.57 | 0.626 | 0.629 | 0.662 | 0.663 | 0.664 | 0.634 | 0.674 | 0.888 | 0.774 | 0.832 | 0.842
LOU-NH91 | 0.578 | 0.577 | 0.547 | 0.556 | 0.78 | 0.757 | 0.704 | 0.679 | 0.64 | 0.645 | 0.607 | 0.538 | 0.529 | 0.541 | 0.541 | 0.563 | 0.816 | 0.805 | 0.771 | 0.672
ABC-1 | 0.548 | 0.605 | 0.65 | 0.488 | – | 0.873 | 0.915 | 0.677 | 0.217 | 0.168 | 0.144 | 0.177 | 0.864 | 0.72 | 0.759 | 0.612 | – | – | – | –
NCI-H1651 | 0.488 | 0.452 | 0.433 | 0.482 | 0.473 | 0.515 | 0.443 | 0.441 | 0.586 | 0.742 | 0.612 | 0.624 | 0.506 | 0.535 | 0.507 | 0.534 | 0.805 | 0.801 | 0.829 | 0.757
